In brackets after ≈: the same amount, converted by molar mass. Where two headings read alike, the source gives them in different places.
Key:
[1] = type: physicochemical; conditions: for pH of solution: solution of the water solubility test, 20 mg/mL in water
Method: (§1) HPLC analysis was performed for analyzing purity and contents such as a stability test, etc., using an Agilent 1100/1200 series HPLC Systems (Agilent, USA) analyzer, and the conditions used for HPLC were as follows. • Purity and Content Analysis Conditions: Furopyrimidine Compound of Formula 1 • Column: Hydrosphere C18 (YMC), 5 μm (150 mm×4.6 mm) • Column temperature: 30° C. • Detector: UV spectrophotometer • Detection wavelength: 254 nm • Flow rate: 1.0 mL/min • Time of analysis: 35 min • Eluent: NaClO4—NaH2PO4— phosphate buffer solution (pH 2.5±0.1)/CH3CN=65/35(v/v %) 5. Ion Chromatography (IC)
To measure water solubility, each sample of the acid addition salts of the compound of Formula 1 prepared in Examples 1 to 6 was prepared in deionized water under the following conditions, and then each solution was analyzed by HPLC according to content measurement conditions of the compound of Formula 1. The dissolved amounts (LOD: more than 0.001 mg/mL) based on the compound of Formula 1 were measured, and then the values were converted.
In detail, each 100 mg of various forms was added to 5 mL of water, and mixed using a Voltamixer at 20° C. to 25° C., and a filtrate filtered using GH Polypro membrane Acrodisc, PALL (pore size of 0.2 μm) was diluted with a dilution solvent for HPLC.

[2] = Dynamic vapor sorption (DVS) hygroscopicity; type: physicochemical
Method: DVS analysis was performed in a DVS advantage (Surface measurement system, United Kingdom) analyzer at 25° C. with a relative humidity of 0% to 90%. 10 mg of a sample was placed into a wire-mesh vapor sorption balance pan, and then attached to a DVS-advantage dynamic vapor sorption balance via surface measurement systems. Until a stable weight was achieved (99.5% completion of steps), the sample was applied to a ramping profile with a relative humidity (RH) of 10% to 90% with a 10% increase of the sample while maintaining the sample in each step. Upon completion of the sorption cycle, the sample was dried using the same process while maintaining a relative humidity of […]. The changes in the sample weight during the adsorption/desorption cycle (repeated 3 times) were recorded, and the hygroscopicity of the sample was measured.

[3] = Stability of the crystalline form under storage conditions; type: physicochemical; conditions: for stability under long-term storage conditions: temperature of 25° C. and relative humidity of 60%; for stability under accelerated conditions: temperature of 40° C. and relative humidity of 75%
Method: as §1

[4] = amorphous compound of Formula 1 as prepared in the reference documents; cited from earlier work
[5] = 25° C., region with a relative humidity of 10% to 90%

SMILES	Solubility [1]	water absorption in DVS [2, 5]	stability under long-term storage conditions [3]	stability under accelerated conditions [3]	also measured
C=CC(=O)Nc1cccc(Oc2nc(Nc3ccc(N4CCN(C)CC4)cc3)nc3ccoc23)c1 [Example 5, N-(3-(2-(4-(4-methylpiperazin-1-yl)phenylamino)furo[3,2-d]pyrimidin-4-yloxy)phenyl)acrylamide]	0.93 mg/mL (≈ 1980 µM)	about 1%	sufficiently stable	sufficiently stable	pH of solution ([1]; listed as 1MsOH•1H2O): 6.1
C=CC(=O)Nc1cccc(Oc2nc(Nc3ccc(N4CCN(C)CC4)cc3)nc3ccoc23)c1 [Formula 1 (Free base), N-(3-(2-(4-(4-methylpiperazin-1-yl)phenylamino)furo[3,2-d]pyrimidin-4-yloxy)phenyl)acrylamide]	0.001 mg/mL				pH of solution [1]: 7.2~7.3; solubility in water [4]: less than 0.001 mg/mL
C=CC(=O)Nc1cccc(Oc2nc(Nc3ccc(N4CCN(C)CC4)cc3)nc3ccoc23)c1 [Example 1, N-(3-(2-(4-(4-methylpiperazin-1-yl)phenylamino)furo[3,2-d]pyrimidin-4-yloxy)phenyl)acrylamide]	0.9~1.4 mg/mL		sufficiently stable	sufficiently stable	solubility compared in words [1]: higher solubility than the crystalline form of the monohydrochloride; pH of solution ([1]; listed as 2HCl•3H2O): 2.3~2.4; water absorption in DVS ([2]; region with a relative humidity of 0% to 20%): showed water absorption; water absorption in DVS ([2]; region with a relative humidity of 30% or more): very low water absorption; stability under harsh conditions ([3]; printed: temperature of 40° C. and relative humidity of 75%): sufficiently stable
C=CC(=O)Nc1cccc(Oc2nc(Nc3ccc(N4CCN(C)CC4)cc3)nc3ccoc23)c1 [Example 4, N-(3-(2-(4-(4-methylpiperazin-1-yl)phenylamino)furo[3,2-d]pyrimidin-4-yloxy)phenyl)acrylamide]	1.13 mg/mL (≈ 2400 µM)	about 2%	sufficiently stable	sufficiently stable	pH of solution ([1]; listed as 1MsOH•anhydrous): 6.3
C=CC(=O)Nc1cccc(Oc2nc(Nc3ccc(N4CCN(C)CC4)cc3)nc3ccoc23)c1 [Example 6, N-(3-(2-(4-(4-methylpiperazin-1-yl)phenylamino)furo[3,2-d]pyrimidin-4-yloxy)phenyl)acrylamide]	9.59 mg/mL (≈ 20400 µM)	about 1%	sufficiently stable	sufficiently stable	solubility compared in words [1]: remarkably high solubility; pH of solution ([1]; listed as 1EsOH anhydrous): 6.3
C=CC(=O)Nc1cccc(Oc2nc(Nc3ccc(N4CCN(C)CC4)cc3)nc3ccoc23)c1 [Example 3, N-(3-(2-(4-(4-methylpiperazin-1-yl)phenylamino)furo[3,2-d]pyrimidin-4-yloxy)phenyl)acrylamide]	1.27 mg/mL (≈ 2700 µM)	about 1%	sufficiently stable	sufficiently stable	pH of solution ([1]; listed as 1HCl•anhydrous): 5.9~6.0
C=CC(=O)Nc1cccc(Oc2nc(Nc3ccc(N4CCN(C)CC4)cc3)nc3ccoc23)c1 [Example 2, N-(3-(2-(4-(4-methylpiperazin-1-yl)phenylamino)furo[3,2-d]pyrimidin-4-yloxy)phenyl)acrylamide]	0.3~0.7 mg/mL	about 0.8%	sufficiently stable	sufficiently stable	pH of solution ([1]; listed as 1HCl•2H2O): 5.8~5.9

Source: patent US12227510B2, “Crystal form of acid addition salt of furopyrimidine compound” (HANMI PHARM. CO., LTD., priority 2019, dated 2025)
